Assay results published in patent US9145449B2, “STIP1 polypeptides and uses thereof” (Chang Gung Memorial Hospital, Linkou Branch, priority 2013, dated 2015).
Where a SMILES comes first, the peptide text is derived from it. Where no end group is shown, it is not given here.

What was measured:
ovarian cancer cells = experiment: BrdU proliferation assay (FIG. 7A, 7C, 7E); assay type: cell-based, human; conditions: for rhSTIP1-increased BrdU incorporation: with inhibitor, antibody or siRNA
Description: (§1) The BrdU assay and Ki67 staining procedures have been reported previously (Tsai et al 2012, Wang et al 2010). For BrdU assays, cancer cells were seeded at a density of 10^4 cells/well in a 96-well plate overnight, and cultured in serum-free medium for 24 h. Cancer cells were treated with 0.4 μM of rhSTIP1 in the presence of BrdU for 24 h. DNA synthesis activity was measured using BrdU ELISA kit (Roche Applied Science). For immunocytochemistry studies of Ki-67, MDAH2774 cells were cultured on Lab-Tek II chamber slides (Nalge Nunc International, Denmark) overnight. After serum starvation or RNAi transfection for 72 h, cancer cells were treated with 0.4 μM of STIP1 with or without an STIP1 antibody for another 24 h. The slides were fixed with 99.9% of ethanol, rehydrated with PBS, treated with 3% of hydrogen peroxide for 20 min, permeabilized with 0.1% Triton X-100 (Sigma) for 15 min, and stained with anti-Ki67 antibody (Thermo Fisher Scientific, Rockford, Ill.).
(§2) BrdU is an analogue of thymidine which can replace thymidine during DNA replication, and Ki67 is a nuclear protein that is associated with cell proliferation. BrdU incorporation assay and immunocytochemistry for endogenous Ki67 were used as an index for cell proliferation. Treatment with rhSTIP1 increased the BrdU incorporation rate and Ki67 staining of ovarian cancer cells (FIG. 7A to FIG. 7F). These activities were reduced by treatment with an ALK2/ALK3 inhibitor (LDN193189) and an ERK inhibitor (PD98059) (FIGS. 7A and 7B), an STIP1 antibody (FIGS. 7C and 7D), and ALK2 siRNA and STIP1 siRNA (FIGS. 7E and 7F).

MDAH2774 cells = experiment: Ki67 immunocytochemistry (FIG. 7B, 7D, 7F); assay type: cell-based, human; conditions: for rhSTIP1-increased Ki67 staining: with inhibitor, antibody or siRNA
Description: as §1, §2

[1] = system: ovarian cancer cells (MDAH2774); experiment: MTT cell viability of transfected MDAH2774 cells; assay type: cell-based, human; conditions: for Normalized O.D / Original O.D / cancer cell viability (in words, FIG. 10B and Table 2): MTT, MDAH2774; for Normalized O.D / Original O.D: peptide 200 uM; for cancer cell viability (in words, FIG. 10B and Table 2): transfected peptides
Excerpt: Human ovarian cancer cell lines TOV112D, TOV21G, SKOV3, MDAH2774, ES2, MDAH2774, BG1; human endometrial cancer cell line RL95-2, human pancreatic cancer cell line BxPC3, breast cancer cell line (MCF7) and colon cancer cell line (HT29) were obtained from ATCC (Rockville, Md., USA). Lung cancer cell line CL1-0 and nasopharyngeal carcinoma cell line NPC-BM1 were obtained from Dr. C C Wu (Department of Medical Biotechnology and Laboratory Science, Chang-Gung University, Taoyuan, Taiwan), Wu et al. Mol. Cell Proteomics 9(6):11100 (20101). Mouse ovarian cancer cell line MOSEC was obtained from Dr. C L Chang (Department of Obstetrics and Gynecology, Mackay Memorial Hospital, Taipei, Taiwan), Chang et al. Cancer Research 67:10047 (2007). TOV112D, TOV21G, SKOV3, MDAH2774, ES2 and RL95-2 were cultured in Dulbecco's modified Eagle's medium/F-12 supplemented with 10% fetal bovine serum and antibiotics at 37° C. in 5% CO2 humidified atmosphere. BxPC3, CL1-0, NPC-BM1 and MOSEC cells were cultured in RPMI 1640 media supplemented with 10% fetal bovine serum.
Cancer cells were transfected with an STIP1 antibody in PLUSin reagent (Polyplus-transfection Inc., NY, USA) according to manufacturer's protocol. In summary, 2×10^3˜6×10^3 cancer cells were seeded in a 96-well plate overnight, followed by PBS rinse and the addition of 180 μl of OPTI-MEM. 0.6 μg of mouse STIP1 antibody were diluted in 20 mM HEPES, mixed with 1.2 μl of PLUSin by vortexing, followed by incubation at room temperature for 15 min. The antibody/PLUSin mixture was added to the cancer cells by gentle swirling the plate. The STIP1 antibody and the control IgG used in the working examples described herein are commercially available from Abnova Biotechnology Inc., (Taipei City, Taiwan). The STIP1 antibody in the working examples described herein can be used to detect recombinant full length STIP1 (SEQ ID NO:3).
1˜2×10^4 Cancer cells were plated per well in 96-well plates overnight, then transfected with a mouse STIP1 antibody (commercially available from Abnova Biotechnology Inc.) for 48 h before they were assessed. The inhibitory effect of the STIP1 antibody on the cancer cells was measured by the MTT [3-(4,5-Dimethylthiazol-2-yl)-2,5-Diphenyltetrazolium Bromide]method (Sigma St. Louis, Mo.). The optical density was measured at 570 nm using an automated scanning multiwell spectrophotometer (Wallac Victor2 spectrophotometer; PerkinElmer, Boston, Mass., USA).
Given the neutralizing effect of STIP1 polypeptide 520-543 (SEQ ID NO:1) on STIP1 antibody, co-transfecting STIP1 antibody and STIP1 polypeptide 520-543 in cancer cells may reduce the suppression effect of STIP1 antibody. FIG. 10A and Table 1 show cell viability of ovarian cancer cells (MDAH2774) transfected with STIP1 antibody only (positive control) and STIP1 antibody with various concentrations of STIP1 polypeptide 520-543. Cell viability was evaluated using MTT assays. […] For example, the cell viability for STIP1 antibody was 78.81% (Table 1), the cell viability for 25 uM of STIP1 polypeptide 520-543 was 102% (Table 2), and the cell viability for STIP1 antibody and […] of STIP1 polypeptide 520-543 was 56.38% (Table 1). Similarly, the cell viability for 200 uM of STIP1 polypeptide 520-543 was 28.64% (Table 2), and the cell viability for STIP1 antibody and […] of STIP1 polypeptide 520-543 was 27.67% (Table 1).

[2] = system: MDAH2774, ARK2, NPC-BM1, SAS, Colon 205, CL 1-0, BxPC3, HepG2 and MCF7 cells; experiment: MTT assay with cell permeable peptide, cancer cell line panel (FIG. 13B); assay type: cell-based; conditions: all of the tested cancer cells
Description: (§3) Cell permeable STIP1 polypeptide 520-543 was added to the following cancer cell lines: MDAH2774 (ovarian cancer); ARK2 (endometrial cancer); NPC-BM1 (nasopharyngeal cancer); SAS (oral cancer); Colon 205 (colon cancer); CL 1-0 (lung cancer); BxPC3 (pancreatic cancer); HepG2 (liver cancer) and MCF7 (breast cancer) cells. Cancer cell viability was assessed using the MTT assay and cell death was assessed using LDH assay.

[3] = system: MDAH2774, ARK2, NPC-BM1, SAS, Colon 205, CL 1-0, BxPC3, HepG2 and MCF7 cells; experiment: LDH assay with cell permeable peptide, cancer cell line panel (FIG. 13A); assay type: cell-based; conditions: all of the tested cancer cells
Description: as §3

SMAD1/5 phosphorylation = SMAD1/5 phosphorylation western blot / antibody neutralization assay (FIG. 6A, 6B); assay type: cell-based, human; conditions: ES2, SKOV3, TOV21G, TOV112D, BR, BG1, RL95-2, CL1-0, NPC-BM1 cell lines
Description: Cell lysates were prepared with a RIPA buffer (150 mM NaCl, 20 mM Tris-Cl pH7.5, 1% Triton X-100, 1% NP40, 0.1% SDS, 0.5% deoxycholate) containing freshly added proteinase and phosphatase inhibitors (Bionovas, Toronto). Protein concentration was measured using the Bradford method. Fifty μg of each sample was electrophoresed in 10% SDS-polyacrylamide gels, and transferred to nitrocellulose membranes. STIP1 antibody was commercially available from Abnova Biotechnology and Santa Cruz Biotechnology, Santa Cruz, Calif., actin was commercially available from Sigma, the corresponding horseradish peroxidase-conjugated antibody was commercially available from Santa Cruz Biotechnology, enhanced chemiluminescence reagent was commercially available from Millipore Inc. (Millipore, Billerica, Mass.). The signal intensity of autoradiogram was quantified using the UN-SCAN-IT software (Silk Scientific, Orem, Utah), and relative intensity of each sample was normalized by the corresponding actin intensity. For antibody neutralization assay, cancer cells were cultured in serum-free medium for 24 h, and treated with rhSTIP1 for another 24 h in the presence or absence of the STIP1 monoclonal antibody, which were pre-incubated at 37° C. for 1 h. Endogenous phospho-SMAD1/5 was detected with western blot analysis. […]

Row | Molecule | rhSTIP1-increased BrdU incorporation (ovarian cancer cells) | rhSTIP1-increased Ki67 staining (MDAH2774 cells) | Normalized O.D [1] | Original O.D [1] | cancer cell viability (in words, FIG. 10B and Table 2) [1] | other results
1 | c1ccc2c(-c3cnn4cc(-c5ccc(N6CCNCC6)cc5)cnc34)ccnc2c1 [LDN193189] | reduced | reduced | – | – | – | –
2 | COc1cccc(-c2cc(=O)c3ccccc3o2)c1N [PD98059] | reduced | reduced | – | – | – | cell proliferation (BrdU incorporation, FIG. 7A) (ovarian cancer cells; inhibition of ERK activity): strongly inhibited cell proliferation
3 | CSCC[C@H](NC(=O)[C@H](CCSC)NC(=O)[C@H](CS)NC(=O)[C@H](CCCNC(=N)N)NC(=O)[C@H](CCC(N)=O)NC(=O)[C@H](Cc1ccc(O)cc1)NC(=O)CNC(=O)[C@H](CC(=O)O)NC(=O)[C@H](C)NC(=O)[C@H](C)NC(=O)[C@H](CCC(=O)O)NC(=O)[C@H](CCCCN)NC(=O)[C@H](CS)NC(=O)[C@H](CO)NC(=O)[C@H](CO)NC(=O)[C@@H](N)CC(=O)O)C(=O)N[C@@H](C)C(=O)N[C@@H](CCC(N)=O)C(=O)N[C@@H](Cc1ccc(O)cc1)C(=O)N[C@@H](CC(N)=O)C(=O)N[C@@H](CCCNC(=N)N)C(=O)N[C@@H](Cc1c[nH]cn1)C(=O)N[C@@H](CC(=O)O)C(=O)N[C@@H](CO)C(=O)N1CCC[C@H]1C(=O)O [Peptide 458] (H-DSSCKEAADGYQRCMMAQYNRHDSP-OH; N-terminus and C-terminus assumed) | – | – | 0.83 | 0.13 | did not significantly suppress cancer cell viability | –
4 | VQQIMSDPAMRLILEQMQKDPQALS [Peptide 495] | – | – | 0.97 | 0.14 | did not significantly suppress cancer cell viability | Cell viability (%) ([1]; human, 48 h, 200 uM): 96.94%
5 | cell permeable STIP1 polypeptide 520-543: STIP1 polypeptide 520-543 having eight D-arginine residues; detected with anti-myc antibody (EHLKNPVIAQKIQKLMDVGLIAIR; also: octa-D-arginine attached, end not given here, myc tag; UniProt P31948 520-543, looked up, fragment) | – | – | – | – | – | cell proliferation (MTT activity) [2]: inhibits cell proliferation; cell death (LDH activity) [3]: induce cell death
6 | rhSTIP1: recombinant human STIP1 protein (a.a. sequence number 1 to 543) | – | – | – | – | – | BrdU incorporation rate (ovarian cancer cells; treatment with rhSTIP1 (0.4 μM, 24 h)): increased; Ki67 staining (MDAH2774 cells; treatment with rhSTIP1): increased; SMAD1/5 phosphorylation (SMAD1/5 phosphorylation): stimulates SMAD1/5 phosphorylation
